Counter-ions that a name gives are not always drawn.
Tests used:
[1] = tested on: Airway Hyperresponsiveness (AHR) to histamine in sensitized guinea pigs; assay: Guinea pig model of airway hyperreactivity (AHR to histamine after ovalbumin sensitization and challenge); assay type: in vivo
Protocol: Sensitization and drug treatment: Male Hartley guinea pigs (225-250 g) are sensitized with ovalbumin (0.5 mL of 1% solution, i.p. and s.c.). On day 4, animals received a booster injection (i.p.) of 0.5 mL of 1% ovalbumin. On day 21, animals are orally dosed (2mL/kg) with either vehicle (0.5% methylcellulose/0.2% Tween 80) or test compound 2 hours prior to antigen challenge. Thirty minutes before antigen challenge the animals are also injected with mepyramine (30 mg/kg, i.p.) to prevent anaphylactic collapse. Animals are then exposed for 5 minutes to an aerosol of either saline (control animals) or 1% ovalbumin using a deVilbiss Ultraneb nebulizer.
AHR measurement: Eighteen to twenty four hours after challenge, animals are anesthetized with a combination of ketamine (133 mg/kg) and xylazine (24 mg/kg) given intramuscularly, surgically prepared and then mounted in a whole body plethysmograph for lung function measurement. Animals are connected to Ugo-Basile ventilators delivering a tidal volume of 1 mL/100 g at a rate of 50 breaths/minute via a tracheal cannula. The jugular vein is also cannulated for histamine challenge. A water filled esophageal cannula is placed such that transpulmonary pressure is recordable. Transpulmonary pressure is measured as the difference between the tracheal and esophageal cannulas using a differential pressure transducer. The volume, airflow, and transpulmonary pressure signals are monitored using a pulmonary analysis system (Buxco XA software) and used to calculate pulmonary resistance (cm H2O/mL/s) and dynamic compliance (mL/cm H2O). Airway resistance and dynamic compliance are computed on a breath by breath basis. Histamine is administered intravenously and reactivity to increasing concentrations (0.3-20 μg/kg) assessed. ED50's are estimated from the area under the curve (AUC) values derived from the individual histamine dose-response curves.

[2] = Plasma, lung and BAL drug levels in guinea pigs; assay type: in vivo, guinea pig
Protocol: Plasma and Lung Drug Levels Plasma and lung compound levels are determined in satellite groups. Three to four guinea pigs from each of the experimental-drug treatment groups are used for the determination of drug levels. At the indicated time point, (either 2- or 24 hours after dosing), animals are euthanized, and 1 mL blood samples are obtained by cardiac puncture and collected into heparin-coated syringes containing 20 μL (per 1 mL of blood) of a 5 mM hydralazine solution. Plasma is separated from the cellular component of the blood by centrifugation, and stored at −20° C. until assayed. Lung samples are dissected free of connective tissues, blotted dry, weighed and stored in 20 mL vials containing 5 mL of a 5 mM hydralazine solution in saline. The frozen plasma samples are then transferred on dry ice to the Pilot PK group for compound levels determination.

[3] = molecular target: T1, recombinant human β tryptase (Homo sapiens, UniProt Q15661); assay: β-Tryptase inhibitory potency, chromogenic enzyme assay (S2366 substrate); assay type: biochemical
T1 construct: host or cells: yeast cells
T1 sequence (Q15661 31-275): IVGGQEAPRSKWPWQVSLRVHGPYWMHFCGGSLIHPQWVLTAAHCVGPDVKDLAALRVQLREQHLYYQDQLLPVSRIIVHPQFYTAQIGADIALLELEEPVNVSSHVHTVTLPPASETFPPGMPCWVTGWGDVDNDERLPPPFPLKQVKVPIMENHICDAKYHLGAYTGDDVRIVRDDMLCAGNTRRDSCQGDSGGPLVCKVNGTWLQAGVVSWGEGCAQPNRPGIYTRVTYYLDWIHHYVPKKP
Protocol: Tryptase inhibition activity is confirmed using either isolated human lung tryptase or recombinant human β tryptase expressed in yeast cells. Essentially equivalent results are obtained using isolated native enzyme or the expressed enzyme. The assay procedure employs a 96 well microplate (Costar 3590) using L-pyroglutamyl-L-prolyl-L-arginine-para-nitroanilide (S2366: Quadratech) as substrate (essentially as described by McEuen et. al. Biochem Pharm, 1996, 52, pages 331-340). Assays are performed at room temperature using 0.5mM substrate (2×Km) and the microplate is read on a microplate reader (Beckman Biomek Plate reader) at 405 nm wavelength.
Materials and Methods for Tryptase Primary Screen (Chromogenic assay)
• S2366 (Stock solutions of 2.5 mM).
• Purified recombinant beta Tryptase Stocks of 310 μg/mL. Protocol (Single Point Determination) • Add 60 μL of diluted substrate (final concentration of 500 μM in assay buffer) to each well • Add compound in duplicates, final concentration of 20 μM, volume 20 μL • Add enzyme at a final concentration of 50 ng/mL in a volume of 20 μL • Total volume for each well is 100 μL • Agitate briefly to mix and incubate at room temp in the dark for 30 minutes • Read absorbencies at […]

[4] = oral route, sensitized guinea pigs
[5] = 2 hours after dosing, 1 mg/kg, p.o.

Compound: CCCOc1sc(C(=O)N2CCC(c3cc(CN)ccc3F)CC2)c(C)c1Br [Compound I, [4-(5-aminomethyl-2-fluoro-phenyl)-piperidin-1-yl]-(4-bromo-3-methyl-5-propoxy-thiophen-2-yl)-methanone hydrochloride]
- ED50 ([1]; Cavia porcellus, dosed 24 hours prior to antigen challenge, read-out: average ED50, duration of action): 0.4 mg/kg
- ED50, protection against antigen-stimulated AHR to histamine, as measured by airway resistance and dynamic lung compliance ([1]; oral dosing 2 hours prior to ovalbumin challenge): 0.1 mg/kg
- effect on basal airway resistance [1, 4]: no effect
- effect on basal dynamic lung compliance [1, 4]: no effect
- compound level in lung [2, 5]: appreciable amount
- compound level in plasma [2, 5]: detected at a much lower level
- compound level in bronchoalveolar lavage fluid (BAL) ([2]; 2 hours after dosing, 1 mg/kg, p.o., not taking into account dilution factor for BAL): appreciable amount
- compound level in lung ([2]; 24 hours after dosing): dose-dependent appreciable amount
- compound level in plasma ([2]; 24 hours after dosing): no plasma could be detected
- IC50 ([3]; 0.5 mM substrate S2366 (2×Km), room temperature): 76 nM
- Ki ([3]; calculated from IC50: Ki=IC50/(1+[Substrate]/Km)): 15 nM

Source: patent publication US7482459B2, “[4-(5-aminomethyl-2-fluoro-phenyl)-piperidin-1-yl]-(4-bromo-3-methyl-5-propoxy-thiophen-2-yl)-methanone hydrochloride as an inhibitor of mast cell tryptase” (Aventis Pharmaceuticals Inc., priority 2004, dated 2009)
